From PubChem BioAssay AID330 (DTP/NCI, 2004) come the findings set out here.

Molecules are shown by their SMILES. “And” between values parts separate entries of the source, which are not always exact repeats. Equal values may be shown once. Toxic doses and inconclusive results are not listed.

This test deals with P388 leukemia ip, CD2F1 mice, survival T/C. The experiment in a line: NCI In Vivo Anticancer Drug Screen. Data for tumor model P388 Leukemia (intraperitoneal) in CD2F1 (CDF1) mice. Conditions: endpoint: median survival time, higher = longer survival. An outline of the steps: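 Mice carrying the transplanted tumor received test compound or vehicle. Survival was recorded in each group, and the value is the treated-group measurement divided by that of the vehicle-treated control group.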

Where [1] appears, read: dose: 50.0 mg/kg/injection, schedule: Q01DX005 (ip), vehicle: saline with Tween-80.
Where [2] appears, read: dose: 100.0 mg/kg/injection, schedule: Q01DX005 (ip), vehicle: saline with Tween-80.
[3] abbreviates: dose: 200.0 mg/kg/injection, schedule: Q01DX005 (ip), vehicle: saline with Tween-80.
[4] abbreviates: dose: 100.0 mg/kg/injection, schedule: Q04DX003 (ip), vehicle: saline.
The mark [5] stands for this setting: dose: 60.0 mg/kg/injection, schedule: Q01DX005 (ip), vehicle: saline with Tween-80.
The mark [6] stands for this setting: dose: 120.0 mg/kg/injection, schedule: Q01DX005 (ip), vehicle: saline with Tween-80.
The mark [7] stands for this setting: dose: 240.0 mg/kg/injection, schedule: Q01DX005 (ip), vehicle: saline with Tween-80.
[8] abbreviates: dose: 50.0 mg/kg/injection, schedule: Q01DX005 (ip), vehicle: Klucel (hydroxypropylcellulose) (HPC).
Where [9] appears, read: dose: 100.0 mg/kg/injection, schedule: Q01DX005 (ip), vehicle: Klucel (hydroxypropylcellulose) (HPC).
The mark [10] stands for this setting: dose: 200.0 mg/kg/injection, schedule: Q01DX005 (ip), vehicle: Klucel (hydroxypropylcellulose) (HPC).
[11] abbreviates: dose: 50.0 mg/kg/injection, schedule: Q01DX009 (ip), vehicle: saline.
Setting [12] is: dose: 100.0 mg/kg/injection, schedule: Q01DX009 (ip), vehicle: saline.
[13] abbreviates: dose: 50.0 mg/kg/injection, schedule: Q01DX005 (ip), vehicle: saline.
The mark [14] stands for this setting: dose: 100.0 mg/kg/injection, schedule: Q01DX005 (ip), vehicle: saline.
The mark [15] stands for this setting: dose: 50.0 mg/kg/injection, schedule: Q01DX009 (ip), vehicle: Klucel (hydroxypropylcellulose) (HPC).
Where [16] appears, read: dose: 100.0 mg/kg/injection, schedule: Q01DX009 (ip), vehicle: Klucel (hydroxypropylcellulose) (HPC).
Setting [17] is: dose: 200.0 mg/kg/injection, schedule: Q01DX009 (ip), vehicle: Klucel (hydroxypropylcellulose) (HPC).

For the compound `O=C(O)c1ccc(N2N=C3C(=CC(=O)c4ccccc43)SCC2=O)cc1`, the T/C was 97 % of control (dose: 12.5 mg/kg/injection, schedule: Q01DX005 (ip), vehicle: saline + Tween-80 + alcohol) and 112 % of control (dose: 25.0 mg/kg/injection, schedule: Q01DX005 (ip), vehicle: saline + Tween-80 + alcohol).

Turning to `C=C1C2(C(=O)O)CCC(C2)C1(C)C` (stereo unspecified), the T/C runs as follows: under setting [1], 105 % of control; under setting [2], 101 % of control; under setting [3], 111 % of control.

With `CCN(CC)CCNC(=O)c1nn(-c2ccccc2)c2c1CCc1ccccc1-2`, the T/C reads like this: (dose: 25.0 mg/kg/injection, schedule: Q04DX003 (ip), vehicle: saline) 100 % of control; (dose: 50.0 mg/kg/injection, schedule: Q04DX003 (ip), vehicle: saline) 101 % of control; under setting [4], 102 % of control and 107 % of control.

Take `O=C1C2=C(Nc3ccccc3N2)OC1c1ccccc1O` (stereo unspecified): the T/C by setting is: (dose: 60.0 mg/kg/injection, schedule: Q01DX005 (ip), vehicle: Klucel (hydroxypropylcellulose) (HPC)) 98 % of control; (dose: 120.0 mg/kg/injection, schedule: Q01DX005 (ip), vehicle: Klucel (hydroxypropylcellulose) (HPC)) 91 % of control; (dose: 240.0 mg/kg/injection, schedule: Q01DX005 (ip), vehicle: Klucel (hydroxypropylcellulose) (HPC)) 91 % of control.

Regarding `O=C(CC1=NC2NN(c3ccccc3)C(=O)C2=C1CC(=O)c1ccc(F)cc1)c1ccc(F)cc1` (stereo unspecified), the T/C runs as follows: under setting [5], 98 % of control; under setting [6], 97 % of control; under setting [7], 97 % of control.

Consider `c1cc[c]([Ge]([O][Ge]([c]2ccccc2)[c]2ccccc2)[c]2ccccc2)cc1.c1cc[c]([Ge]([O][Ge]([c]2ccccc2)[c]2ccccc2)[c]2ccccc2)cc1`, for which the T/C under setting [8] is 89 % of control, the T/C under setting [9] is 91 % of control and the T/C under setting [10] is 89 % of control.

Turning to `Nc1ccc(N=Nc2cccc3c2Oc2ccccc2O3)c(N)n1`, the T/C is 98 % of control under setting [1], 91 % of control under setting [2] and 105 % of control under setting [3].

For the compound `O=C(O)C12CC3CC(CC(C3)C1)C2.O=C(O)C12CC3CC(CC(C3)C1)C2.O=C(O)C12CC3CC(CC(C3)C1)C2.O=C(O)C12CC3CC(CC(C3)C1)C2.[Rh].[Rh]`, the T/C is 94 % of control (dose: 12.5 mg/kg/injection, schedule: Q01DX009 (ip), vehicle: saline); 91 % of control and 93 % of control (dose: 25.0 mg/kg/injection, schedule: Q01DX009 (ip), vehicle: saline); 100 % of control and 88 % of control under setting [11]; 101 % of control (dose: 50.0 mg/kg/injection, schedule: Q01DX009 (ip), vehicle: suspension in saline); 91 % of control under setting [12]; 120 % of control (dose: 100.0 mg/kg/injection, schedule: Q01DX009 (ip), vehicle: suspension in saline). Moreover, where the note is “dose: 200.0 mg/kg/injection, schedule: Q01DX009 (ip), vehicle: suspension in saline”, the T/C was 108 % of control.

Regarding `O=C1CCCc2c1ccc1ccccc21`, the T/C reads like this: under setting [1], 100 % of control; under setting [2], 101 % of control; under setting [3], 98 % of control.

As for `COc1cc2c(cc1O)NC(OC)C1CC(O)CN1C2=O` (stereo unspecified), the T/C is 121 % of control (dose: 1.0 mg/kg/injection, schedule: Q01DX005 (ip), vehicle: saline with Tween-80); 119 % of control (dose: 2.0 mg/kg/injection, schedule: Q01DX005 (ip), vehicle: saline with Tween-80); 161 % of control (dose: 16.0 mg/kg/injection, schedule: Q01DX005 (ip), vehicle: saline with Tween-80).

On to `COC(=O)N1CCC(N)(C#N)CC1`, for which the T/C reads like this: (dose: 12.5 mg/kg/injection, schedule: Q04DX003 (ip), vehicle: Klucel (hydroxypropylcellulose) (HPC)) 100 % of control; (dose: 25.0 mg/kg/injection, schedule: Q04DX003 (ip), vehicle: Klucel (hydroxypropylcellulose) (HPC)) 93 % of control.

Consider `CCOC(=O)c1nc2ccccc2c(=O)n1NC(=S)Nc1ccc(Cl)cc1`, for which the T/C was 93 % of control under setting [1], 93 % of control under setting [2] and 105 % of control under setting [3].

Turning to `CN(C)c1nnn(Cc2ccccc2)n1`, the T/C was 101 % of control under setting [8], 97 % of control under setting [9] and 104 % of control under setting [10].

Regarding `NC(N)=NC(N)=Nc1ccc(Cl)c(Cl)c1`, the T/C (dose: 12.5 mg/kg/injection, schedule: Q01DX009 (ip), vehicle: saline with Tween-80) is 103 % of control; the T/C (dose: 25.0 mg/kg/injection, schedule: Q01DX009 (ip), vehicle: saline with Tween-80) was 103 % of control and 106 % of control; the T/C (dose: 50.0 mg/kg/injection, schedule: Q01DX009 (ip), vehicle: saline with Tween-80) was 112 % of control and 93 % of control; the T/C (dose: 100.0 mg/kg/injection, schedule: Q01DX009 (ip), vehicle: saline with Tween-80) is 88 % of control; the T/C under setting [4] was 109 % of control.

As to `CN(C)CCCN1CN(CCCN(C)C)CN(CCCN(C)C)C1`, the T/C is, setting by setting: under setting [13], 99 % of control; under setting [14], 103 % of control.

For the compound `COC(=O)/C1=C\CC/C(C(=O)OC)=C\C(=O)CCC1`, the T/C is, setting by setting: (dose: 25.0 mg/kg/injection, schedule: Q01DX005 (ip), vehicle: Klucel (hydroxypropylcellulose) (HPC)) 101 % of control; under setting [8], 101 % of control; under setting [9], 103 % of control.

`COc1ccc(C2C3CCCC(C(c4ccc(OC)cc4)N2C)C32NC(=O)NC2=O)cc1` (stereo unspecified): the T/C runs as follows: under setting [5], 90 % of control; under setting [6], 90 % of control; under setting [7], 91 % of control.

Turning to `CCOC(=O)c1ccc(NC(=O)SC2=NCCS2)cc1`, the T/C is, setting by setting: under setting [15], 101 % of control; under setting [16], 103 % of control.

On to `Cc1cc(C)n(-c2ccc(S(=O)(=O)N3CC(=O)N(c4ccccc4)C3=S)cc2)n1`, for which the T/C was 95 % of control under setting [1] and 93 % of control under setting [2].

Take `O=C(c1ccccc1)N1OC12CCCCC2`: the T/C was 102 % of control under setting [8] and 99 % of control under setting [9].

For the compound `ClC1=CCCC(C(Br)Br)C1` (stereo unspecified), the T/C under setting [15] is 99 % of control, the T/C under setting [16] is 100 % of control and the T/C under setting [17] was 102 % of control.

In the case of `COc1cc(C=C2C(=O)C=CC2=O)ccc1OCc1ccccc1`, the T/C (dose: 2.5 mg/kg/injection, schedule: Q04DX002 (ip), vehicle: saline with Tween-80) was 102 % of control; the T/C (dose: 5.0 mg/kg/injection, schedule: Q04DX002 (ip), vehicle: saline with Tween-80) is 113 % of control; the T/C (dose: 10.0 mg/kg/injection, schedule: Q04DX002 (ip), vehicle: saline with Tween-80) is 107 % of control; the T/C (dose: 25.0 mg/kg/injection, schedule: Q04DX002 (ip), vehicle: saline with Tween-80) was 111 % of control.

As for `O=C1Nc2ccccc2/C1=C/c1ccc(Cl)c(Cl)c1`, the T/C is 96 % of control (dose: 6.25 mg/kg/injection, schedule: Q01DX009 (ip), vehicle: Klucel (hydroxypropylcellulose) (HPC)); 95 % of control (dose: 12.5 mg/kg/injection, schedule: Q01DX009 (ip), vehicle: Klucel (hydroxypropylcellulose) (HPC)); 92 % of control (dose: 25.0 mg/kg/injection, schedule: Q01DX009 (ip), vehicle: Klucel (hydroxypropylcellulose) (HPC)); 86 % of control under setting [16]; 90 % of control under setting [17].

On to `CCO[Si](CCCCl)(OCC)OCC`, for which the T/C by setting is: under setting [15], 100 % of control; under setting [16], 106 % of control; under setting [17], 118 % of control.

As for `CN(C)C1=NC(NC(C)(C)C)(N(C)C)OC(N(C)C)=N1` (stereo unspecified), the T/C (dose: 25.0 mg/kg/injection, schedule: Q01DX005 (ip), vehicle: saline) was 100 % of control; the T/C under setting [13] was 100 % of control; the T/C under setting [14] is 104 % of control.

Consider `CCCCCCCCCCCCSCCSCCC`, for which the T/C by setting is: under setting [11], 90 % of control; under setting [12], 100 % of control; (dose: 200.0 mg/kg/injection, schedule: Q01DX009 (ip), vehicle: saline) 90 % of control.
